Experimental data published in paper PMC10298626 (International Journal of Molecular Sciences, 2023).
Marks after values point to notes of the source that are not given here.

Columns and labels:
acetylcholinesterase = biological target: acetylcholinesterase; design: method as in PMID 8823504, PMID 7649881, PMID 9535168; details: read-out: IC50 against acetylcholinesterase; cited from earlier work
[1] = system: LPS-stimulated RAW264.7 cells; assay: NO production (Griess reagent) in LPS-stimulated RAW264.7 cells; type: cell-based, Mouse; details: for NO production, Average / NO production, Average (μM): then LPS (500 ng/mL) 20 h, LPS alone 25.9, control 3.1; for Anti-inflammatory effect (inhibition of NO secretion), in words: 20, 40, and 80 μM, compared with LPS-only treatment
Description: A high concentration of NO promotes the synthesis of inflammatory mediators, leading to an inflammatory response, and has been reported to be a cause of various immune diseases. Therefore, this study was conducted to investigate the effect of coumarin derivatives on the production of NO induced by LPS stimulation in RAW264.7 cells. The cells were treated with coumarin derivatives at concentrations of 20, 40, and 80 μM for 2 h. Then, the cells were treated with LPS. After 20 h, the culture supernatant was recovered, and the amount of NO was measured. […] The anti-inflammatory activity of these derivatives depended on the position of the substituted group rather than the electron density of the substituted group.
The Griess reagent was used to measure NO production. RAW264.7 cells were seeded into a 96-well plate and cultured for 24 h. The cells were treated with 20, 40, and 80 μM of coumarin derivatives, cultured for 2 h, and then cultured with LPS (500 ng/mL) for 20 h. The same amount of cell supernatant and Griess reagent were used for the reaction, and absorbance was measured at 540 nm.

in vitro = type: cell-based; details: mouse, RAW264.7 cells, then LPS (500 ng/mL) 20 h, read-out: Cell viability, Average (%); for viability at 22 h, 20 μM: 20 μM for 2 h; for viability at 22 h, 40 μM: 40 μM for 2 h; for viability at 22 h, 80 μM: 80 μM for 2 h
Description: To investigate the anti-inflammatory activity of coumarin derivatives, cell viability was analyzed by treating RAW264.7 cells with 23 types of coumarin derivatives at concentrations of 20, 40, and 80 μM for 2 h and with LPS for 20 h.
Mouse macrophage RAW264.7 cells were purchased from the Korea Cell Line Bank (Seoul, Republic of Korea) and cultured in Dulbecco’s Modified Eagle Medium (Corning, NY, USA) containing 10% fetal bovine serum and 1% penicillin/streptomycin at 37 °C and 5% CO2. The medium was changed every 2 days and subcultured when the cells grew > 80%.
EZ-Cytox cell viability assay kit (Dogen, Suwon, Republic of Korea) was used to measure cell viability according to the manufacturer’s instructions. RAW264.7 cells were seeded into a 96-well plate (1 × 10^5 cells/well) and treated with coumarin derivatives at concentrations of 20, 40, and 80 μM. After 2 h, the cells were treated with LPS (500 ng/mL) and cultured for 24 h in a 37 °C, 5% CO2 incubator. The culture supernatant was treated with 10% EZ-Cytox reagent, and a microplate reader was used to measure the absorbance at 450 nm.

[2] = system: LPS-stimulated RAW264.7 cells; assay: NO production (Griess reagent) in LPS-stimulated RAW264.7 cells; type: cell-based, Mouse; details: Dexamethasone (100 μM) treated for 2 h and LPS treated for 20 h; LPS alone 25.9, control 3.1

SMILES	IC50 (acetylcholinesterase)	NO production, Average ([1]; 20 μM for 2 h)	NO production, Average ([1]; 40 μM for 2 h)	NO production, Average (μM) ([1]; 80 μM for 2 h)	Anti-inflammatory effect (inhibition of NO secretion), in words [1]	viability at 22 h, 20 μM (in vitro)	viability at 22 h, 40 μM (in vitro)	viability at 22 h, 80 μM (in vitro)	NO production, Average ([1]; 80 μM for 2 h)	NO production, Average (μM) ([1]; 40 μM for 2 h)	NO production, Average (μM) [2]
COc1ccc(-c2cc3c(c(=O)o2)C[C@]2(O)[C@@]4(C)C(=O)C=CC(C)(C)[C@]4(O)CC[C@@]2(C)O3)cc1 [Arisugacin B]	26 nM	–	–	–	–	–	–	–	–	–	–
COc1ccc(-c2cc3c(c(=O)o2)C[C@]2(O)[C@@]4(C)C(=O)C=CC(C)(C)[C@]4(O)CC[C@@]2(C)O3)cc1OC [Arisugacin A]	1 nM	–	–	–	–	–	–	–	–	–	–
COc1ccc(C2C(C#N)=C(N)Oc3c2c(=O)oc2ccccc32)cc1 (stereo not drawn) [Coumarin derivative 17]	–	28.68 µM	26.11 µM	20.16 ** μM	weak anti-inflammatory effects at high concentrations	122%	122%	137%	–	–	–
N#CC1=C(N)Oc2c(c(=O)oc3ccccc23)C1c1ccc(F)cc1 (stereo not drawn) [Coumarin derivative 3]	–	27.60 µM	28.86 µM	–	–	95.4%	101%	110%	22.84 µM	–	–
N#CC1=C(N)Oc2c(c(=O)oc3ccccc23)C1c1ccccc1C(F)(F)F (stereo not drawn) [Coumarin derivative 4]	–	15.71 µM	–	18.09 *** μM	–	79.9%	91.2%	88.7%	–	17.45 *** μM	–
Cc1ccc(C2C(C#N)=C(N)Oc3c2c(=O)oc2ccccc32)cc1 (stereo not drawn) [Coumarin derivative 11]	–	24.80 µM	26.47 µM	–	–	113%	108%	122%	26.19 µM	–	–
N#CC1=C(N)Oc2c(c(=O)oc3ccccc23)C1c1ccc(C#N)cc1 (stereo not drawn) [Coumarin derivative 22]	–	31.41 µM	28.84 µM	–	weak anti-inflammatory effects at high concentrations	120%	122%	114%	22.89 µM	–	–
N#CC1=C(N)Oc2c(c(=O)oc3ccccc23)C1c1ccccc1Cl (stereo not drawn) [Coumarin derivative 7]	–	32.83 µM	29.66 µM	–	–	106%	121%	124%	27.60 µM	–	–
N#CC1=C(N)Oc2c(c(=O)oc3ccccc23)C1c1cccc(OC(F)(F)F)c1 (stereo not drawn) [Coumarin derivative 13]	–	27.17 µM	26.33 µM	–	almost no anti-inflammatory effects	114%	118%	112%	24.94 µM	–	–
C[C@@H]1C[C@H]2[C@@H]3CCC4=CC(=O)C=C[C@]4(C)[C@@]3(F)[C@@H](O)C[C@]2(C)[C@@]1(O)C(=O)CO [Dexamethasone]	–	–	–	–	–	–	–	–	–	–	6.5 ^# μM
